{
  "source": "patent US20170176439A1",
  "about": "“MARKERS AND THERAPEUTIC INDICATORS FOR GLIOBLASTOMA MULTIFORME (GBM)” (Institute for Systems Biology, priority 2014, published 2017)",
  "key": {"[1]": {"system": "C-terminal phosphorylation of SMAD2", "assay": "C-terminal phosphorylation of SMAD2 in U87 cells", "format": "cell-based", "experimental": "(§1) To identify markers for subjects that may benefit from this treatment, astrocytoma cell line U87 was serum starved overnight and treated with 10 ng/ml TGF-β1 for 40 hrs. […] However, as serum contains many essential elements and growth factors, the effect of serum starvation on cells might not be specific to the inhibition of TGF-β signaling. Therefore, we employed a TGF-β-inhibitor (SB 431542) known to interfere with the C-terminal phosphorylation of SMAD2. […] Thus in subsequent SRM analysis, TGF-β-inhibitor was used instead of serum starving."}, "[2]": {"system": "healthy neural stem cells (NSCs)", "assay": "GBMSig cell-surface expression in healthy NSCs with TGF-β1 or inhibitor", "format": "cell-based", "experimental": "[The source words this procedure for another cell line and reports this cell line under the same test.] The expression of the selected GBMSig proteins responsive to TGF-β viz. SLC16A1, HMOX1, MRC2, SLC16A3, CD47, and CD97 was also tested in primary GBM cells from SN143 tumor tissues in the presence of TGF-β or its inhibitor by flow cytometry. […] EGFR, EGFRVIII, and PTEN altered in GBM can create further heterogeneities in TGF-β responsiveness as observed through the expression of various GBMSig proteins."}, "[3]": {"system": "primary GBM cells from SN143 tumor tissues", "assay": "Flow cytometry of GBMSig expression in primary GBM cells from SN143 tumor tissue with TGF-β or its inhibitor", "format": "cell-based", "experimental": "The expression of the selected GBMSig proteins responsive to TGF-β viz. SLC16A1, HMOX1, MRC2, SLC16A3, CD47, and CD97 was also tested in primary GBM cells from SN143 tumor tissues in the presence of TGF-β or its inhibitor by flow cytometry."}, "U87 cell line": {"system": "U87 cell line", "assay": "d-SRM assays of GBMSig protein expression in U87 cell line after TGF-β vs TGF-β-inhibitor treatment", "format": "cell-based", "experimental": "Novel TGF-β responsive elements were identified among GBMSig through experimental validation. […] U87 cells were treated with TGF-β1 or its inhibitor alone or sequentially with inhibitor followed by TGF-β1. Changes in expressions of GBMSig proteins following such treatments were measured by SRM assays.\nas §1"}, "[4]": {"system": "isogenic cell lines of U87 (EGFR, EGFRVIII, PTEN)", "assay": "Cell-surface GBMSig expression in response to TGF-β in U87 isogenic cell lines", "format": "cell-based", "experimental": "Isogenic cell lines of U87 where key proliferative genes such as EGFR and EGFRVIII are overexpressed alone or in combination with PTEN were tested for molecular responsiveness of isogenic cell lines towards TGF-β treatment. In EGFR and EGFRVIII isogenic cell lines, there was elevated surface expression of SLC16A1 and HMOX1 in response to TGF-β treatment. PTEN expression, however, inhibited this effect, indicating possible involvement of a tumor suppressor PTEN in modulating the surface expression of these proteins in GBM. On the other hand, MRC2 and CD47 were up regulated in response to TGF-β treatment when PTEN was overexpressed.\nCommonly mutated GBM genes include EGFR, EGFRVIII, and PTEN. Four isogenic cell lines of U87 in which these genes are expressed alone or in combinations of EGFRVIII and PTEN or EGFR and PTEN via a stably integrated retroviral vector were used (Gini, B., et al., Clin Cancer Res. (2013) 19:5722-5732).\nThere was an increase in the cell-surface expression of CD47, SLC16A3, MRC2, HMOX1 and SLC16A1 in response to TGF-β in all U87 isogenic cell lines similar to that of the parental cell line."}, "U-87 cells": {"system": "U-87 cells", "conditions": "U-87, flow cytometry", "experimental": "In an alternate assay, six GBMSig proteins viz. SLC16A1, MRC2, CD47, SLC16A3, HMOX1, and CD97 were tested as downstream factors of TGF-β signaling by flow cytometry. TGF-β or TGF-β inhibitor treated intact U-87 cells were analyzed by flow cytometry and the ratio of the respective GBMSig expression in response to TGF-β1 over its inhibitor was obtained."}, "[5]": {"conditions": "primary GBM cells from SN143 tissue, flow cytometry"}, "[6]": {"conditions": "U87 isogenic overexpressing EGFR"}, "[7]": {"conditions": "U87 isogenic overexpressing EGFRVIII"}},
  "data": [
    {"molecule": "NC(=O)c1ccc(-c2nc(-c3ccc4c(c3)OCO4)c(-c3ccccn3)[nH]2)cc1", "note": "[SB 431542]", "values": [
      {"measurement": "C-terminal phosphorylation of SMAD2", "setting": "[1]; cells in normal media (DMEM+10% FCS) supplemented with inhibitor", "result": "dampened or diminished"},
      {"measurement": "expression of MRC2, CD47, SLC16A3 and CD97 after TGF-β-inhibitor treatment", "setting": "[2]; NSCs", "result": "increased expression"},
      {"measurement": "effect on SLC16A1, HMOX1 and CD97 expression", "setting": "[2]; healthy NSCs", "result": "little or no effect"},
      {"measurement": "expression of CD47 in response to TGF-β-inhibitor treatment compared to TGF-β1 treatment", "setting": "[2]; healthy NSCs", "result": 0.61, "unit": "fold"},
      {"measurement": "expression of MRC2 in response to TGF-β-inhibitor treatment compared to TGF-β1 treatment", "setting": "[2]; healthy NSCs", "result": 0.19, "unit": "fold"},
      {"measurement": "increase in surface expression of HMOX1 in response to TGF-β-inhibitor treatment relative to TGF-β treatment", "setting": "[3]; SN143 tumor-derived GCSC populations", "result": 30, "unit": "%"}
    ]},
    {"molecule": "TGF-β1: TGF-β1, inducer of epithelial to mesenchymal transition, used at 10 ng/ml to treat cells", "values": [
      {"measurement": "C-terminal phosphorylation of SMAD2", "setting": "[1]; U87 serum starved overnight, 10 ng/ml TGF-β1 for 40 hrs, in comparison to cells in serum-free media", "result": "increased"},
      {"measurement": "CD109 expression following TGF-β treatment relative to TGF-β-inhibitor alone", "setting": "U87 cell line", "result": 2.09, "unit": "fold"},
      {"measurement": "CLCC1 expression following TGF-β treatment relative to TGF-β-inhibitor alone", "setting": "U87 cell line", "result": 2.26, "unit": "fold"},
      {"measurement": "CRTAP expression following TGF-β treatment relative to TGF-β-inhibitor alone", "setting": "U87 cell line", "result": 2.12, "unit": "fold"},
      {"measurement": "DDR2 expression following TGF-β treatment relative to TGF-β-inhibitor alone", "setting": "U87 cell line", "result": 3.53, "unit": "fold"},
      {"measurement": "ITGA7 expression following TGF-β treatment relative to TGF-β-inhibitor alone", "setting": "U87 cell line", "result": 9.45, "unit": "fold"},
      {"measurement": "MGST1 expression following TGF-β treatment relative to TGF-β-inhibitor alone", "setting": "U87 cell line", "result": 2.77, "unit": "fold"},
      {"measurement": "MRC2 expression following TGF-β treatment relative to TGF-β-inhibitor alone", "setting": "U87 cell line", "result": 3.06, "unit": "fold"},
      {"measurement": "PTGFRN expression following TGF-β treatment relative to TGF-β-inhibitor alone", "setting": "U87 cell line", "result": 2.18, "unit": "fold"},
      {"measurement": "SLC16A1 expression following TGF-β treatment relative to TGF-β-inhibitor alone", "setting": "U87 cell line", "result": 2.05, "unit": "fold"},
      {"measurement": "TGFBI expression following TGF-β treatment relative to TGF-β-inhibitor alone", "setting": "U87 cell line", "result": 10.54, "unit": "fold"},
      {"measurement": "TNC expression following TGF-β treatment relative to TGF-β-inhibitor alone", "setting": "U87 cell line", "result": 6.55, "unit": "fold"},
      {"measurement": "enrichment of CD47, VCAM1, MYOF, ABCA1, CD44, S100A10, CA12 and SLC16A3 on TGF-β treatment vs. TGF-β-inhibitor treatment", "setting": "U87 cell line", "result": "> 1.3", "unit": "fold"},
      {"measurement": "expression of CD97, SCAMP3, PDIA4, CD99, ABCA1, TMX1, RTN4 and CD151 following TGF-β treatment in comparison to inhibitor treatment", "setting": "U87 cell line", "result": "remained largely unchanged"},
      {"measurement": "expression of the 11 proteins when TGF-β-inhibitor treated cells were retreated with TGF-β", "setting": "U87 cell line", "result": "overexpressed"},
      {"measurement": "expression of ASPH, NRP1, CD276 and HMOX1 following TGF-β treatment", "setting": "U87 cell line; vs inhibitor treatment", "result": "relatively reduced"},
      {"measurement": "changes in cell-surface expression of SLC16A1, HMOX1, MRC2, CD47, SLC16A3 and CD97 in response to TGF-β treatment", "setting": "[2]; NSCs", "result": "no significant changes"},
      {"measurement": "effect on SLC16A1, HMOX1 and CD97 expression", "setting": "[2]; healthy NSCs", "result": "little or no effect"},
      {"measurement": "expression of HMOX1 when treated with TGF-β1 compared to its inhibitor", "setting": "[3]; [5]", "result": 0.77, "unit": "fold"},
      {"measurement": "expression of MRC2 when treated with TGF-β1 compared to its inhibitor", "setting": "[3]; [5]", "result": 1.62, "unit": "fold"},
      {"measurement": "expression of SLC16A1 when treated with TGF-β1 compared to its inhibitor", "setting": "[3]; [5]", "result": 0.79, "unit": "fold"},
      {"measurement": "expression of HMOX1 in response to TGF-β", "setting": "[4]; EGFR+PTEN cells", "result": 1.058, "unit": "fold"},
      {"measurement": "expression of SLC16A1 in response to TGF-β", "setting": "[4]; EGFR+PTEN cells", "result": 0.724, "unit": "fold"},
      {"measurement": "expression of CD97", "setting": "[4]; EGFRVIII alone", "result": "0.75±0.010", "unit": "fold"},
      {"measurement": "expression of SLC16A3", "setting": "[4]; EGFRVIII alone", "result": 0.97, "unit": "fold"},
      {"measurement": "expression of CD97", "setting": "[4]; EGFRVIII+PTEN cells", "result": 1.51, "unit": "fold"},
      {"measurement": "expression of HMOX1 in response to TGF-β", "setting": "[4]; EGFRVIII+PTEN cells", "result": 1.48, "unit": "fold"},
      {"measurement": "expression of SLC16A1 in response to TGF-β", "setting": "[4]; EGFRVIII+PTEN cells", "result": 1.19, "unit": "fold"},
      {"measurement": "expression of SLC16A3", "setting": "[4]; EGFRVIII+PTEN cells", "result": 1.3, "unit": "fold"},
      {"measurement": "increase in expression of HMOX1 in response to TGF-β compared to the parental cell line", "setting": "[4]; [6]", "result": 2.69, "unit": "fold"},
      {"measurement": "increase in expression of SLC16A1 in response to TGF-β compared to the parental cell line", "setting": "[4]; [6]", "result": "1.5±0.028", "unit": "fold"},
      {"measurement": "increase in expression of HMOX1 in response to TGF-β compared to the parental cell line", "setting": "[4]; [7]", "result": 2.13, "unit": "fold"},
      {"measurement": "increase in expression of SLC16A1 in response to TGF-β compared to the parental cell line", "setting": "[4]; [7]", "result": 1.75, "unit": "fold"},
      {"measurement": "cell-surface expression of CD47, SLC16A3, MRC2, HMOX1 and SLC16A1 in response to TGF-β", "setting": "[4]; all U87 isogenic cell lines, similar to parental cell line", "result": "increase"},
      {"measurement": "MRC2 and CD47 expression in response to TGF-β treatment", "setting": "[4]; when PTEN was overexpressed", "result": "up regulated"},
      {"measurement": "increase of ratio of cell-surface CD47, TGF-β over TGF-β inhibitor", "setting": "U-87 cells", "result": 40, "unit": "%"},
      {"measurement": "increase of ratio of cell-surface HMOX1, TGF-β over TGF-β inhibitor", "setting": "U-87 cells", "result": 20, "unit": "%"},
      {"measurement": "increase of ratio of cell-surface MRC2, TGF-β over TGF-β inhibitor", "setting": "U-87 cells", "result": 25, "unit": "%"},
      {"measurement": "increase of ratio of cell-surface SLC16A1, TGF-β over TGF-β inhibitor", "setting": "U-87 cells", "result": 20, "unit": "%"},
      {"measurement": "increase of ratio of cell-surface SLC16A3, TGF-β over TGF-β inhibitor", "setting": "U-87 cells", "result": 30, "unit": "%"},
      {"measurement": "increase of ratio of cell-surface CD97, TGF-β over TGF-β inhibitor", "setting": "U-87 cells; essentially no change", "result": 1.1, "unit": "fold"}
    ]}
  ]
}
